Source: the supplement of paper PMC10627819

Legend:
[1] = tested on: B. subtilis 168; test: Bliss interaction score (quartile over a dose matrix) (fitness difference); higher = more antagonism (negative = synergy)
Summary of the method: (§1)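 The Bliss score subtracts expected fitness, the product of the single-drug fitness values, from observed fitness. Fitness is plate-normalised OD595 at entry into stationary phase, relative to the robust no-drug mean and capped at 1, with single-drug fitness inferred from combinations. Summaries are quartiles over technical, biological and donor/recipient replicates.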

[2] = tested on: S. aureus Newman; test: as above
Summary of the method: as §1

[3] = tested on: S. aureus DSM 20231; test: as above
Summary of the method: as §1

[4] = tested on: S. pneumoniae D39V; test: as above
Summary of the method: as §1

[5] = tested on: B. subtilis 168; test: fitness (endpoint OD595 vs no drug) (fraction); higher = more growth
Summary of the method: (§2)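 Plates with 384 wells were inoculated at OD595 0.01 using 30 µl of TSB, LB Lennox or CY, or 55 µl for S. pneumoniae. Incubation was at 37 °C, with OD595 measured every 30 min for 14 h. Fitness is the stationary-phase transition optical density over the robust mean of no-drug control wells, after first-reading background subtraction; it is capped at 1.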

[6] = tested on: S. aureus Newman; test: as above
Summary of the method: as §2

[7] = tested on: S. aureus DSM 20231; test: as above
Summary of the method: as §2

[8] = first compound 0.5 µg/mL, partner 0.375 µg/mL
[9] = first compound 0.5 µg/mL, partner 0.75 µg/mL
[10] = first compound 0.5 µg/mL, partner 1.5 µg/mL
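For Bliss interaction score (quartile over a dose matrix) in this document: first quartile when negative (synergy) and third quartile when positive (antagonism).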

SMILES: CC1(C)S[C@@H]2[C@H](NC(=O)[C@H](N)c3ccc(O)cc3)C(=O)N2[C@H]1C(=O)O [Amoxicillin] + CN(C)[C@@H]1C(O)=C(C(N)=O)C(=O)[C@@]2(O)C(O)=C3C(=O)c4c(O)ccc(Cl)c4[C@@](C)(O)[C@H]3C[C@@H]12 [Clortetracycline]
- Bliss interaction score [1]: 0.164
- Bliss interaction score [2]: -0.0669
- Bliss interaction score [3]: 0.0294
- Bliss interaction score [4]: 0.168

SMILES: CCCSc1nc(N[C@@H]2C[C@H]2c2ccc(F)c(F)c2)c2nnn([C@@H]3C[C@H](OCCO)[C@@H](O)[C@H]3O)c2n1 [Ticagrelor] + Oc1cc(Cl)ccc1Oc1ccc(Cl)cc1Cl [Triclosan]
- Bliss interaction score [3]: 0.247

SMILES: CN(C)C(=O)C(CCN1CCC(O)(c2ccc(Cl)cc2)CC1)(c1ccccc1)c1ccccc1 [Loperamide] + C[C@H]1C[C@@H]2[C@H]([C@@H](O)C[C@@]3(C)[C@H]2CC[C@]3(O)C(=O)CO)[C@@]2(C)C=CC(=O)C=C12 [Methylprednisolone]
- Bliss interaction score [3]: -0.341

SMILES: CN(C)C(=O)C(CCN1CCC(O)(c2ccc(Cl)cc2)CC1)(c1ccccc1)c1ccccc1 [Loperamide] + CCCSc1nc(N[C@@H]2C[C@H]2c2ccc(F)c(F)c2)c2nnn([C@@H]3C[C@H](OCCO)[C@@H](O)[C@H]3O)c2n1 [Ticagrelor]
- Bliss interaction score [3]: -0.453

SMILES: CN(C)C(=O)C(CCN1CCC(O)(c2ccc(Cl)cc2)CC1)(c1ccccc1)c1ccccc1 [Loperamide] + CC(C)(O)c1ccccc1CC[C@@H](SCC1(CC(=O)O)CC1)c1cccc(/C=C/c2ccc3ccc(Cl)cc3n2)c1 [Montelukast]
- Bliss interaction score [3]: -0.28

SMILES: C[C@]12CC[C@@H]3c4ccc(O)cc4CC[C@H]3[C@@H]1CC[C@@H]2O [Estradiol] + CC1(C)S[C@@H]2[C@H](NC(=O)Cc3ccccc3)C(=O)N2[C@H]1C(=O)O [PenicillinG]
- Bliss interaction score [3]: 0.255

SMILES: CC1(C)S[C@@H]2[C@H](NC(=O)[C@H](N)c3ccc(O)cc3)C(=O)N2[C@H]1C(=O)O [Amoxicillin] + Cc1ccc(-c2cc(C(F)(F)F)nn2-c2ccc(S(N)(=O)=O)cc2)cc1 [Celecoxib]
- Bliss interaction score [3]: 0.185

SMILES: CCCSc1nc(N[C@@H]2C[C@H]2c2ccc(F)c(F)c2)c2nnn([C@@H]3C[C@H](OCCO)[C@@H](O)[C@H]3O)c2n1 [Ticagrelor] + CN(C)c1cc(NC(=O)CNC(C)(C)C)c(O)c2c1C[C@H]1C[C@H]3[C@H](N(C)C)C(O)=C(C(N)=O)C(=O)[C@@]3(O)C(O)=C1C2=O [Tigecycline]
- Bliss interaction score [3]: 0.216

SMILES: C[C@H]1COc2c(N3CCN(C)CC3)c(F)cc3c(=O)c(C(=O)O)cn1c23 [Levofloxacin] + Cc1c(Cl)cccc1Nc1ccccc1C(=O)O [Tolfenamic]
- Bliss interaction score [3]: -0.164

SMILES: CC1(C)S[C@@H]2[C@H](NC(=O)[C@H](N)c3ccc(O)cc3)C(=O)N2[C@H]1C(=O)O [Amoxicillin] + CC/C(=C(\c1ccccc1)c1ccc(OCCN(C)C)cc1)c1ccccc1 [Tamoxifene]
- Bliss interaction score [3]: -0.148

SMILES: CCCSc1nc(N[C@@H]2C[C@H]2c2ccc(F)c(F)c2)c2nnn([C@@H]3C[C@H](OCCO)[C@@H](O)[C@H]3O)c2n1 [Ticagrelor] + CN[C@H](CC(C)C)C(=O)N[C@H]1C(=O)N[C@@H](CC(N)=O)C(=O)N[C@H]2C(=O)N[C@H]3C(=O)N[C@H](C(=O)N[C@H](C(=O)O)c4cc(O)cc(O)c4-c4cc3ccc4O)[C@H](O)c3ccc(c(Cl)c3)Oc3cc2cc(c3O[C@@H]2O[C@H](CO)[C@@H](O)[C@H](O)[C@H]2O[C@H]2C[C@](C)(N)[C@H](O)[C@H](C)O2)Oc2ccc(cc2Cl)[C@H]1O [Vancomycin]
- Bliss interaction score [3]: 0.257

SMILES: CC1(C)S[C@@H]2[C@H](NC(=O)[C@H](N)c3ccc(O)cc3)C(=O)N2[C@H]1C(=O)O [Amoxicillin] + O=C(O)c1cc(-c2ccc(F)cc2F)ccc1O [Diflunisal]
- Bliss interaction score [3]: 0.204

SMILES: CC1(C)S[C@@H]2[C@H](NC(=O)[C@H](N)c3ccc(O)cc3)C(=O)N2[C@H]1C(=O)O [Amoxicillin] + CCN(CC)CCOc1ccc(C(=C(Cl)c2ccccc2)c2ccccc2)cc1 [Clomiphene]
- Bliss interaction score [3]: -0.255

SMILES: Cc1ccc(-c2cc(C(F)(F)F)nn2-c2ccc(S(N)(=O)=O)cc2)cc1 [Celecoxib] + CN(C)C(=O)C(CCN1CCC(O)(c2ccc(Cl)cc2)CC1)(c1ccccc1)c1ccccc1 [Loperamide]
- Bliss interaction score [3]: -0.452

SMILES: CCCCCCCCCC(=O)N[C@@H](Cc1c[nH]c2ccccc12)C(=O)N[C@H](CC(N)=O)C(=O)N[C@@H](CC(=O)O)C(=O)N[C@@H]1C(=O)NCC(=O)N[C@@H](CCCN)C(=O)N[C@@H](CC(=O)O)C(=O)N[C@H](C)C(=O)N[C@@H](CC(=O)O)C(=O)NCC(=O)N[C@H](CO)C(=O)N[C@@H]([C@H](C)CC(=O)O)C(=O)N[C@@H](CC(=O)c2ccccc2N)C(=O)O[C@@H]1C [Daptomycin] + N[C@@H]1CONC1=O [Cycloserine D]
- fitness ([5]; first compound 0.125 µg/mL, partner 0.125 µg/mL): 0.962
- fitness ([5]; first compound 0.125 µg/mL, partner 0.25 µg/mL): 0.903
- fitness ([5]; first compound 0.125 µg/mL, partner 0.5 µg/mL): 0.921
- fitness ([5]; first compound 0.25 µg/mL, partner 0.125 µg/mL): 0.978
- fitness ([5]; first compound 0.25 µg/mL, partner 0.25 µg/mL): 0.923
- fitness ([5]; first compound 0.25 µg/mL, partner 0.5 µg/mL): 0.989
- fitness ([5]; first compound 0.5 µg/mL, partner 0.125 µg/mL): 0.945
- fitness ([5]; first compound 0.5 µg/mL, partner 0.25 µg/mL): 0.886
- fitness ([5]; first compound 0.5 µg/mL, partner 0.5 µg/mL): 0.874
- fitness ([5]; first compound 1 µg/mL, partner 0.125 µg/mL, one replicate): 0.784
- fitness ([5]; first compound 1 µg/mL, partner 0.25 µg/mL, one replicate): 0.758
- fitness ([5]; first compound 1 µg/mL, partner 0.5 µg/mL, one replicate): 0.737
- fitness ([6]; first compound 0.125 µg/mL, partner 0.375 µg/mL): 0.979
- fitness ([6]; first compound 0.125 µg/mL, partner 0.75 µg/mL): 0.996
- fitness ([6]; first compound 0.125 µg/mL, partner 1.5 µg/mL): ≥ 1
- fitness ([6]; first compound 0.25 µg/mL, partner 0.375 µg/mL): 0.983
- fitness ([6]; first compound 0.25 µg/mL, partner 0.75 µg/mL): 0.999
- fitness ([6]; first compound 0.25 µg/mL, partner 1.5 µg/mL): ≥ 1
- fitness [6, 8]: 0.983
- fitness [6, 9]: ≥ 1
- fitness [6, 10]: 0.993
- fitness [7, 8]: 0.964
- fitness [7, 9]: 0.996
- fitness [7, 10]: ≥ 1
- fitness ([7]; first compound 1 µg/mL, partner 0.375 µg/mL): ≥ 1
- fitness ([7]; first compound 1 µg/mL, partner 0.75 µg/mL): 0.983
- fitness ([7]; first compound 1 µg/mL, partner 1.5 µg/mL): ≥ 1
- fitness ([7]; first compound 2 µg/mL, partner 0.375 µg/mL): ≥ 1
- fitness ([7]; first compound 2 µg/mL, partner 0.75 µg/mL): 0.978
- fitness ([7]; first compound 2 µg/mL, partner 1.5 µg/mL): ≥ 1

SMILES: CN(C)C(=O)C(CCN1CCC(O)(c2ccc(Cl)cc2)CC1)(c1ccccc1)c1ccccc1 [Loperamide] + CN(Cc1cnc2nc(N)nc(N)c2n1)c1ccc(C(=O)N[C@@H](CCC(=O)O)C(=O)O)cc1 [Methotrexate]
- Bliss interaction score [3]: -0.309

SMILES: Cc1ccc(-c2cc(C(F)(F)F)nn2-c2ccc(S(N)(=O)=O)cc2)cc1 [Celecoxib] + CC[C@H]1OC(=O)[C@H](C)C(=O)[C@H](C)[C@@H](O[C@@H]2O[C@H](C)C[C@H](N(C)C)[C@H]2O)[C@](C)(OC)C[C@@H](C)C(=O)[C@H](C)[C@H]2N(CCCCn3cnc(-c4cccnc4)c3)C(=O)O[C@]12C [Telithromycin]
- Bliss interaction score [3]: -0.162
